Experimental data taken from patent US20080220080A1, “Multiparticulate Pharmaceutical form Comprising Pellets with a Substance Having a Modular Effect in Relation to Active Ingredient Release” (RÖHM GMBH, priority 2005, published 2008).
Entries after “also recorded” stand apart in the source; their conditions may differ.

Legend:
[1] = active ingredient delivery in PhEur phosphate buffer of pH 6.8 in a USP dissolution tester (theophylline pellets); assay type: physicochemical; conditions: substance in pellet core under EUDRAGIT RS coating
[2] = in vitro activity of modulating substances in purified water and phosphate buffer pH 6.8; assay type: physicochemical; conditions: purified water vs phosphate buffer pH 6.8
Description: In the human and animal gastrointestinal tract the concentration of ions may vary to a certain extent and thus may influence the activity of the modulating substances. For reproducible in-vivo results substances having a modulating effect, which are not or only a little influenced by varying ionic strength are preferred.

Row | Compound | effect of the modulating substance on the rate of active ingredient delivery [1] | in vitro activity of the modulating substance in purified water compared with phosphate buffer pH 6.8 (Pharm. Eur.) [2] | effect of the modulating substance on the rate of active ingredient delivery ([1]; listed as Na acetate) | effect of the modulating substance on the rate of active ingredient delivery ([1]; listed as NaCl) | effect of the modulating substance on the rate of active ingredient delivery ([1]; listed as Na succinate)
1 | O=C([O-])CC(O)(CC(=O)[O-])C(=O)[O-].[Na+].[Na+].[Na+] [Na citrate] | decrease the rate of active ingredient delivery | – | – | – | –
2 | O=C(O)CC(O)(CC(=O)O)C(=O)O [citric acid] | accelerating effect; also recorded: increase the rate of active ingredient delivery | almost the same activity | – | – | –
3 | CC(=O)[O-].[Na+] [sodium acetate] | accelerating effect | – | increase the rate of active ingredient delivery | – | –
4 | [Cl-].[Na+] [sodium chloride] | reducing effect | almost the same activity | – | decrease the rate of active ingredient delivery | –
5 | O=C([O-])CCC(=O)[O-].[Na+].[Na+] [sodium succinate] | accelerating effect | almost the same activity | – | – | increase the rate of active ingredient delivery
